# Measured values from US8987207B2, “Peptides which have analgesic effects and which inhibit ASIC channels” (Centre National de la Recherche Scientifique—CNRS, priority 2010, dated 2015).
# Bridges are numbered along the chain shown (N, C = ends). Where no end group is shown, it is not given here.
# Key:
# [1] = molecular target: T1, rat heteromeric ASIC1a+ASIC3 channels (Rattus norvegicus, UniProt O35240+P55926); settings: read-out: concentration inhibiting 50% of the current produced by rat heteromeric ASIC1a+ASIC3 channels; cited from earlier work
# T1 sequence (P55926 1-526): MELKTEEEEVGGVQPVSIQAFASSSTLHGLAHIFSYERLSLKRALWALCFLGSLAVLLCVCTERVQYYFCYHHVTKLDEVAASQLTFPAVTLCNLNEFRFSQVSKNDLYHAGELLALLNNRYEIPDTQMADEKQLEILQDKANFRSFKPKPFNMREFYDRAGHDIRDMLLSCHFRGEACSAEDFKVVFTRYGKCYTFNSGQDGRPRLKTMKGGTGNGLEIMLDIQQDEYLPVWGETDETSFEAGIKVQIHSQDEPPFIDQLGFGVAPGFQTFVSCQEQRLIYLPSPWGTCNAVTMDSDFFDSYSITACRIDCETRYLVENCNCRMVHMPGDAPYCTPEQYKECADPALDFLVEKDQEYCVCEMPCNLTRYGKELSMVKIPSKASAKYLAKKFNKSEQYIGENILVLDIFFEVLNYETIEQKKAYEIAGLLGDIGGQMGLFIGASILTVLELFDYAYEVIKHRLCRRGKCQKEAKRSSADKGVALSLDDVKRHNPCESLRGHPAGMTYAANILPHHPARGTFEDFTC
# T1 sequence (O35240 1-533): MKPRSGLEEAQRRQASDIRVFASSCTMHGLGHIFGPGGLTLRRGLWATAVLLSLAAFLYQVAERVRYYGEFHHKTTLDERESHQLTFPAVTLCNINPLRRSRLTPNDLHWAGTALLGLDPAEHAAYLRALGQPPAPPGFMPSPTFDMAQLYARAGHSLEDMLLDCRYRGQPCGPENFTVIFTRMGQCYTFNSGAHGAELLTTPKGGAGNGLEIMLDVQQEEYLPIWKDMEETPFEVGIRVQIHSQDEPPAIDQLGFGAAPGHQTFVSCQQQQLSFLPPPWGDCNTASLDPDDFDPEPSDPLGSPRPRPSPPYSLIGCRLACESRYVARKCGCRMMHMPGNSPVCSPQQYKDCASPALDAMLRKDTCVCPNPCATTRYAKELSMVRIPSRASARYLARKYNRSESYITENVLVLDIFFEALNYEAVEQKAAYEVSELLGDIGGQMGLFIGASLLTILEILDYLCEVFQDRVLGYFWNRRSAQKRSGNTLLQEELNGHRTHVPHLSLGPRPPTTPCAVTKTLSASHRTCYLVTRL
# [2] = rats, cited from earlier work
# [3] = Toxicity after intrathecal injection; assay type: in vivo; settings: mice
# [4] = molecular target: T2, homomeric ASIC1a channels (Homo sapiens, UniProt P78348); settings: read-out: concentration inhibiting 50% of the current produced by homomeric ASIC1a channels; cited from earlier work
# T2 sequence (P78348 1-528): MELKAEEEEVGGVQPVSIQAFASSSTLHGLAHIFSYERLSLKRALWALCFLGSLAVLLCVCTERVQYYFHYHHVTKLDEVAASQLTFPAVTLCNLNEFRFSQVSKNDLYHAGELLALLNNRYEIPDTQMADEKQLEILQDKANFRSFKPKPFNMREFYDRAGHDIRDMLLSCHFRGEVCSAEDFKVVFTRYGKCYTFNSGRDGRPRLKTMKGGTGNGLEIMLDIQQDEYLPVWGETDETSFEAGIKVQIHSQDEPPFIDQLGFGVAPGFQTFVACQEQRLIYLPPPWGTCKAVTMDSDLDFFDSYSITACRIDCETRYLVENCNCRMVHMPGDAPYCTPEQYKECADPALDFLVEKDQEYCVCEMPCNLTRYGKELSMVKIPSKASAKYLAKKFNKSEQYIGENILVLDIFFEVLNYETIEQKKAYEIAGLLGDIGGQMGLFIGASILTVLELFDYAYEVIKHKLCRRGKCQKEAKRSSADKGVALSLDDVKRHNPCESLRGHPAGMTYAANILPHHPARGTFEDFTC
# [5] = mice, central injection; cited from earlier work
# [6] = Accelerating rotarod test (motor activity) after intrathecal injection; assay type: in vivo; settings: mice, IT injection, compared with vehicle, ANOVA
# Protocol: The effects of the ASICalgin-1 peptide on motor activity were evaluated by means of the accelerating rotarod test. The mice were placed on an axle rotating at four rotations per minute (rpm) which undergoes a constant acceleration of 5 rpm per minute up to 40 rpm. The latency to fall is measured, with a maximum limit of 300 s.
# [7] = Toxicity after intracerebroventricular injection; assay type: in vivo; settings: mice, ICV injection, even after 3 days
# Protocol: The intracerebroventricular (ICV) injection of the ASICalgin-1 peptide was carried out in the third ventricle of the brain of mice (C57B16J, 7- to 11-week-old males) anesthetized with isoflurane (1.5%) using the following stereotaxic coordinates: −2.4 mm under the cortical surface, −0.5 mm in the anterior-posterior axis and +1.6 mm in the mediolateral axis relative to the bregma. The effects of an ICV injection of 5 μl of solution containing […] of ASICalgin-1 (0.34 nmol) were compared with the effects of 5 μl of saline solution vehicle (145 mM NaCl, 5 mM KCl, 2 mM CaCl2, 10 mM HEPES, pH 7.4, 0.05% bovine serum albumin) naxolone, an inhibitor of opioid receptors (especially μ-type), was injected subcutaneously at 2 mg/kg in 50 μl of 0.9% NaCl, ten minutes before the ICV injection of the ASICalgin-1 peptide.
substance,measurement,setting,value
APETx2,IC50,[1],2000 nM
same,analgesic effect on post-operative pain,[2]; intra-operative application,induces an analgesic effect
same,analgesic effect on inflammatory and acidic pain,[2]; peripheral (subcutaneous) injection,induces an analgesic effect
"LKCFQHGKVVTCHRDMKFCYHNTGMPFRNLKLILQGCSSSCSETENNKCCSTDRCNK (disulfide 3-19, 12-37, 41-49, 50-55) [ASICalgin-2]","toxicity: behavior (motor, balance, apathy, paralysis, convulsion), deaths",[3],induces no modification of behavior
PcTx1,IC50,[4],1 nM
same,analgesic effect,[5],powerful analgesic effect
"LKCYQHGKVVTCHRDMKFCYHNTGMPFRNLKLILQGCSSSCSETENNKCCSTDRCNK (disulfide 3-19, 12-37, 41-49, 50-55) [ASICalgin-1]","effect on motor activity, latency to fall",[6],does not induce any significant effect
same,"toxicity: behavior (motor, balance, apathy, paralysis, convulsion), deaths",[3],induces no modification of behavior
same,"toxicity: behavior (motor, balance, apathy, paralysis, convulsion), deaths",[7],induces no modification of behavior
